These results are taken from ChEMBL document CHEMBL5331107 (J Med Chem, 2023).

Broadly, the solubility is how much of the substance goes into solution per volume. High values mean much dissolved substance, low ones little dissolved substance. What is called microsomal CLint is the capacity of the preparation to metabolise the compound, expressed as a volume cleared per time. Usually half-life stands for the time needed for the level to fall by half in the phase considered. One may read the EC50 as the concentration at which the effect is half-maximal. In general, CC50 refers to the concentration giving 50% cytotoxicity. What is called IC50 is the point on the concentration scale where inhibition reaches its midpoint. Usually inhibition stands for the relative decrease from the control value, in per cent. Read a low inhibition as little suppression.

A short description of data set [1]: Metabolic stability in human liver microsomes assessed as half-life incubated for 60 mins in the presence of NADPH by LC-MS/MS analysis. It counts as ADME, Microsome. In general terms: Liver microsomes are a subcellular fraction often used to study metabolism.
Data set [2] is described as follows: Water solubility of the compound in phosphate buffer at pH 7.4.
The nature of data set [3]: Metabolic stability in human liver microsomes assessed as intrinsic clearance incubated for 60 mins in the presence of NADPH by LC-MS/MS analysis.
Data set [4] is described as follows: Metabolic stability in human liver assessed as intrinsic clearance incubated for 60 mins in the presence of NADPH by LC-MS/MS analysis. The format is ADME, tissue-based. The note with it: read-out: CLH.
The nature of data set [5]: Metabolic stability in human liver microsomes assessed as compound remaining measured after 60 mins in the presence of NADPH by LC-MS/MS analysis. The format is ADME, Microsome.
Data set [6] can be described thus: Metabolic stability in human plasma assessed as compound hydrolysis incubated for 120 mins by LC-MS/MS analysis. The note with it: 2 h. It counts as ADME, cell-free.
A short description of data set [7]: Metabolic stability in human plasma assessed as half-life incubated for 120 mins by LC-MS/MS analysis. The format is ADME, cell-free.
For data set [8], the system named is Human immunodeficiency virus 1. As to the kind of experiment: Antiviral activity against NNRTI-resistant HIV-1 harboring L100I mutant infected in human MT4 cells assessed as protection against virus-induced cytopathic effect incubated for 5 days by MTT assay. It counts as functional, organism-based. Particulars: Human immunodeficiency virus 1, MT4, 120 h.
Data set [9] deals with Human immunodeficiency virus 1. Put plainly: Antiviral activity against NNRTI-resistant HIV-1 harboring K103N mutant infected in human MT4 cells assessed as protection against virus-induced cytopathic effect incubated for 5 days by MTT assay. It counts as functional, organism-based. Particulars: Human immunodeficiency virus 1, MT4, 120 h. A general note: Cytopathic effects are the visible damage that an infection or toxin causes in cultured cells.

Data set [10] in a line: in vitro. The note with it: human, MT4 cells.
Description: Selectivity index, ratio of CC50 for cytotoxicity against human MT4 cells to EC50 for antiviral activity against NNRTI-resistant HIV-1 harboring E138K mutant infected in human MT4 cells
Data set [11] is described as follows: in vitro. The note with it: human, MT4 cells. The source holds these as a separate data set.
Description: Selectivity index, ratio of CC50 for cytotoxicity against human MT4 cells to EC50 for antiviral activity against NNRTI-resistant HIV-1 harboring Y181C mutant infected in human MT4 cells
The test system of data set [12] is Human immunodeficiency virus 1. The format is functional, organism-based. Particulars: Human immunodeficiency virus 1, MT4, 120 h.
Data set [13] is described as follows: in vitro. The note with it: human, MT4 cells. The source holds these as a separate data set.
Description: Selectivity index, ratio of CC50 for cytotoxicity against human MT4 cells to EC50 for antiviral activity against NNRTI-resistant HIV-1 harboring K103N and Y181C mutant infected in human MT4 cells
A short description of data set [14]: in vitro. The note with it: human, MT4 cells. The source holds these as a separate data set.
Description: Selectivity index, ratio of CC50 for cytotoxicity against human MT4 cells to EC50 for antiviral activity against NNRTI-resistant HIV-1 harboring Y188L mutant infected in human MT4 cells
Data set [15] can be described thus: in vitro. The note with it: human, MT4 cells. This is another data set of the same source.
Description: Selectivity index, ratio of CC50 for cytotoxicity against human MT4 cells to EC50 for antiviral activity against wildtype HIV-1 IIIB infected in human MT4 cells
Data set [16] relates to Human immunodeficiency virus 1. As to the kind of experiment: microbe, parasite or virus in culture. Particulars: Human immunodeficiency virus 1, IIIB, MT4, 120 h.
Description: Antiviral activity against wild type HIV-1 IIIB infected in human MT4 cells assessed as protection against virus-induced cytopathic effect incubated for 5 days by MTT assay
A short description of data set [17]: Cytotoxicity against human MT4 cells assessed as reduction in cell viability incubated for 5 days by MTT assay. The format is toxicity, cell-based. Particulars: time 5 day.
Data set [18] concerns Human immunodeficiency virus 1. As to the kind of experiment: Antiviral activity against NNRTI-resistant HIV-1 harboring F227L and V106A double mutant infected in human MT4 cells assessed as protection against virus-induced cytopathic effect incubated for 5 days by MTT assay. Particulars: Human immunodeficiency virus 1, MT4, 120 h. The format is functional, organism-based.

Data set [19] has as its system Human immunodeficiency virus 1. Put plainly: Antiviral activity against NNRTI-resistant HIV-1 harboring E138K mutant infected in human MT4 cells assessed as protection against virus-induced cytopathic effect incubated for 5 days by MTT assay. It counts as functional, organism-based. The note with it: Human immunodeficiency virus 1, MT4, 120 h.
Data set [20] can be described thus: in vitro. The note with it: human, MT4 cells. This is another data set of the same source.
Description: Selectivity index, ratio of CC50 for cytotoxicity against human MT4 cells to EC50 for antiviral activity against NNRTI-resistant HIV-1 harboring K103N mutant infected in human MT4 cells
Data set [21] relates to Human immunodeficiency virus 1. The format is functional, organism-based. The note with it: Human immunodeficiency virus 1, MT4, 120 h. This is another data set of the same source.
Data set [22] has as its system Human immunodeficiency virus 1. The format is functional, organism-based. The note with it: Human immunodeficiency virus 1, MT4, 120 h. The source holds these as a separate data set.
A short description of data set [23]: in vitro. Particulars: human, MT4 cells. This is another data set of the same source.
Description: Selectivity index, ratio of CC50 for cytotoxicity against human MT4 cells to EC50 for antiviral activity against NNRTI-resistant HIV-1 harboring L100I mutant infected in human MT4 cells
Data set [24] can be described thus: in vitro. Particulars: human, MT4 cells. This is another data set of the same source.
Description: Selectivity index, ratio of CC50 for cytotoxicity against human MT4 cells to EC50 for antiviral activity against NNRTI-resistant HIV-1 harboring F227L and V106A mutant infected in human MT4 cells
The target in data set [25] is Human immunodeficiency virus type 1 reverse transcriptase (Human immunodeficiency virus 1, UniProt Q72547). As to the kind of experiment: Inhibition of HIV-1 reverse transcriptase assessed as assessed as reduction of biotin-dUTP incorporation into […] incubated for 1 hrs by ELISA analysis.
Data set [26] deals with Human immunodeficiency virus 1. As to the kind of experiment: Potency index, ratio of efavirenz EC50 to test compound EC50 for antiviral activity against NNRTI-resistant HIV-1 harboring K103N mutant infected in human MT4 cells assessed as protection against virus-induced cytopathic effect incubated for 5 days by MTT assay. It counts as functional. Particulars: time 5 day.

Data set [27] in a line: Metabolic stability in human plasma assessed as compound remaining incubated for 120 mins by LC-MS/MS analysis. The format is ADME, cell-free. Particulars: read-out: Stability.
The nature of data set [28]: Water solubility of the compound in phosphate buffer at pH 7.0.
The target in a further data set is hERG (Homo sapiens, UniProt Q12809). Put plainly: Inhibition of hERG expressed in CHO cells at 0.1 uM at -80 mV holding potential by manual patch-clamp electrophysiology method relative to control. The format is toxicity, cell-based. The note with it: CHO cells expressing hERG. For orientation: The hERG channel carries a current that helps repolarise heart muscle cells.
hERG, sequence (Q12809 whole entry): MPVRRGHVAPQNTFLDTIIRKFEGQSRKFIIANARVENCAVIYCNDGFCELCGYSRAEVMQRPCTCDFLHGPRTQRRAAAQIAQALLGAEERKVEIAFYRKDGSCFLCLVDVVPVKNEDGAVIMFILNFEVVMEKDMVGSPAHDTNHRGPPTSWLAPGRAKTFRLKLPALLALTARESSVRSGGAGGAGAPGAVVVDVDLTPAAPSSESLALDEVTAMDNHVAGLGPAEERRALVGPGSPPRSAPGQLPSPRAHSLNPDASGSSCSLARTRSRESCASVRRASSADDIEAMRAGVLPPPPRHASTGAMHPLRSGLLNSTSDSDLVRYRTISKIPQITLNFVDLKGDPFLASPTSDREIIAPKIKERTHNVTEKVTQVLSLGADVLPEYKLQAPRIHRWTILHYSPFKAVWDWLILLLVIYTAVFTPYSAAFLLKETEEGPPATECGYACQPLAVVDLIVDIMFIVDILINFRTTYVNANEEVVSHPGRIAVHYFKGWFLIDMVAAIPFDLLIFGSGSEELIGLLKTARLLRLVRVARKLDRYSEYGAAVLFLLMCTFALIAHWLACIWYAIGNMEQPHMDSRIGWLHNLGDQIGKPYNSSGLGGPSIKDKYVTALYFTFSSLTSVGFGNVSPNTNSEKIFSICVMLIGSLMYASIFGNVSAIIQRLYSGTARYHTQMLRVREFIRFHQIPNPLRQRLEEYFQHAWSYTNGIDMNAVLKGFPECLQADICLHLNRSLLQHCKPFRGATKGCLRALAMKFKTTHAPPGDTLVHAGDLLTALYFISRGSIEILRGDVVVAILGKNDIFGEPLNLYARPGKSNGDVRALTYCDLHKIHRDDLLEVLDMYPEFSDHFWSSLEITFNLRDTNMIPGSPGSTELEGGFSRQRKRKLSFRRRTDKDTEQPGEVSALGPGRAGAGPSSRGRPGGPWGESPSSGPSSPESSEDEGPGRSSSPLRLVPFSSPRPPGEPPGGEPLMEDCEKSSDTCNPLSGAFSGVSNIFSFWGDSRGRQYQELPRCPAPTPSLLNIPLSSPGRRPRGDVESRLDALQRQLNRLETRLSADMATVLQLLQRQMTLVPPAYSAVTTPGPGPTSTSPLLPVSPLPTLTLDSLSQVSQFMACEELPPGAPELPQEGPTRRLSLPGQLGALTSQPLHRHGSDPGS

Consider `Cc1cc(/C=C/C#N)cc(C)c1Nc1ccnc(Nc2ccc(C#N)cc2)n1` [RILPIVIRINE], for which the t1/2 in data set [1] (microsomes, 1 h) stood at 12.8 min. The solubility in data set [2] (buffer) was less than 1 µg/mL. Also, the microsomal CLint at 1 h in [3] (microsomes) came out at 108 µL/min/mg. For the same compound, the CLint scaled in [4] came out at 97.6 mL/min/kg. Further, the Stability in data set [5] (microsomes, 1 h) was 21%.
Regarding `CC(C)[N+](C)(CCOC(=O)C1c2ccccc2Oc2ccccc21)C(C)C.[Br-]` [PROPANTHELINE BROMIDE], in data set [6], the Stability result was “Unstable”. The half-life in data set [7] was 10 min.
Take `Cc1ccc(C(=O)N2CCc3nc(Nc4ccc(C#N)cc4)nc(Oc4c(C)cc(C#N)cc4C)c3C2)cc1`: the EC50 in data set [8] was 94.6 nM; in data set [9], 7.14 nM; in data set [12], 182 nM; in [16] it was 7.08 nM; in [18] it was 314 nM; in data set [19] it was 23.5 nM. The values for the EC50 in data set [21] and in data set [22] were 49.7 nM and 50.5 nM, respectively. The selectivity ratio in the data set “in vitro [10]” is more than 10300; in “in vitro [11]”, more than 4890; in “in vitro [13]”, more than 1340; in “in vitro [14]” it was more than 4810; in the data set “in vitro [15]”, more than 34300; in “in vitro [20]”, more than 34000. For the same compound, the selectivity ratio in the data set “in vitro [23]” is more than 2570; in “in vitro [24]” it was more than 774. Besides, the CC50 at 120 h in data set [17] was more than 243000 nM. Further, the IC50 in data set [25] came to 236 nM.
With `Cc1cc(C#N)cc(C)c1Oc1nc(Nc2ccc(C#N)cc2)nc2c1CN(Cc1ccc(C(N)=O)cc1)CC2`, the EC50 is 67 nM in data set [8]; 7.84 nM in data set [9]; 85.8 nM in data set [12]; 6.7 nM in data set [16]; 111 nM in [18]; 13.4 nM in data set [19]. Moreover, the EC50 in [21] is 34.2 nM; in data set [22], 183 nM. Also, the selectivity ratio in “in vitro [10]” came out at 7560; in the data set “in vitro [11]” it was 2960; in “in vitro [13]” it was 1180; in “in vitro [14]” it was 5550; in the data set “in vitro [15]”, 15100; in the data set “in vitro [20]”, 12900. For the same compound, the selectivity ratio was 1510 in the data set “in vitro [23]” and 914 in the data set “in vitro [24]”. Moreover, the CC50 at 120 h in data set [17] worked out at 101000 nM. Further, the “Ratio EC50” value in [26] was determined as 17. The IC50 in data set [25] turned out to be 123 nM.
Regarding `Cc1cc(C#N)cc(C)c1Oc1nc(Nc2ccc(C#N)cc2)nc2c1CN(Cc1ccc(S(C)(=O)=O)cc1)CC2`, the EC50 was determined as 160 nM in data set [8]; 8.72 nM in data set [9]; 118 nM in data set [12]; 8.7 nM in [16]; 234 nM in [18]; 43.3 nM in [19]. Besides, the EC50 in data set [21] was 41.3 nM; in data set [22] it was 36.6 nM. For the same compound, the selectivity ratio is more than 5110 in “in vitro [10]”; more than 5360 in “in vitro [11]”; more than 1880 in the data set “in vitro [13]”; more than 6050 in “in vitro [14]”; more than 25400 in the data set “in vitro [15]”; more than 25400 in “in vitro [20]”. Further, the figures for the selectivity ratio in “in vitro [23]” and in the data set “in vitro [24]” were more than 1380 and more than 944, respectively. The CC50 at 120 h in data set [17] is more than 221000 nM. Besides, in data set [25], the IC50 was found to be 234 nM.
In the case of `Cc1cc(C#N)cc(C)c1Oc1nc(Nc2ccc(C#N)cc2)nc(N)c1Br` [ETRAVIRINE], the EC50 in data set [9] is 3.95 nM; in [12], 66.7 nM; in data set [22] it was 32.1 nM. Further, in [27], the remaining at 2 h is 83.2%. Further, the half-life in data set [1] (liver microsomes) was 65.5 min; in data set [7] it was more than 289 min. The solubility in data set [2] (phosphate buffer) and in data set [28] was less than 1 µg/mL throughout. Besides, the CC50 at 120 h in [17] is more than 4610 nM. For the same compound, in [3] (liver microsomes), the microsomal CLint at 1 h turned out to be 21.2 µL/min/mg. The CLint scaled in [4] was found to be 19 mL/min/kg. Besides, the remaining at 1 h in [5] (liver microsomes, read-out: Stability) was 50.2%.
For the compound `Cc1cc(C#N)cc(C)c1Oc1nc(Nc2ccc(C#N)cc2)nc2c1CNCC2`, the EC50 worked out at 33.2 nM in [8]; 3.09 nM in data set [9]; 383 nM in [12]; 1.89 nM in [16]; 136 nM in [18]; 5.61 nM in data set [19]. Also, the EC50 in data set [21] was 45.4 nM; in data set [22], 19.5 nM. For the same compound, the selectivity ratio came to 3520 in the data set “in vitro [10]”; 435 in the data set “in vitro [11]”; 51 in the data set “in vitro [13]”; 1010 in “in vitro [14]”; 10400 in “in vitro [15]”; 6380 in the data set “in vitro [20]”. The results for the selectivity ratio in the data set “in vitro [23]” and in the data set “in vitro [24]” were 595 and 145, respectively. Also, in data set [17], the CC50 at 120 h came out at 19700 nM. In [25], the IC50 was 57 nM.
For the compound `COc1cc(N)c(Cl)cc1C(=O)NC1CCN(CCCOc2ccc(F)cc2)CC1OC` (stereo not drawn) [CISAPRIDE], at 0.1 µM the inhibition against hERG was 64%.
